Test results from article PMC9671962 (Communications Biology, 2022).
“And” between values parts separate entries of the source, which are not always exact repeats. Equal entries are not always repeated.

Tests used:
Format in all cases: in vivo
[1] = Mouse weight over time / tolerability in PDX efficacy study (Fig. 1f)
Description: (§1) The use of 2 mice per arm was based on the previously reported statistical analysis. PDX tumors were implanted into the right flank of 5 to 6-weeks old female mice weighing about 20–25 grams. […] Two additional dose levels of 12, and 24 MBq/kg/fraction were assessed in a subset of models and were administered as stated above. In two models treated at the 24 MBq/kg/fraction dose level we re-challenged tumor response at the time of tumor progression with an additional 4 dose fractions at 24 MBq/kg/fraction given twice weekly. Doses were prepared in 500 µL total volume. An equal volume of saline was used for the vehicle group. Tumors were measured using a digital caliper at the initiation of the study and two times per week during the treatment period. Tumor volumes were calculated as volume = ([…]∗0.5236)/1000. Weights were obtained twice weekly and mice were monitored daily for signs of toxicity. […] Tumor response was assessed by best response defined as greatest reduction in tumor volume following the last dose and is presented as percent change in tumor volume. Event-free survival was determined by area over the curve method that calculates the time to tumor event, which was defined as tumors reaching or exceeding a size ≥ 2 cm^3.

[2] = system: high-risk neuroblastoma patient-derived xenograft (PDX) mouse models; assay: Pre-clinical efficacy study in 11 neuroblastoma PDX mouse models (grouped analysis)
Description: (§2) Patient demographics and genetic characteristics are listed in (Supplementary Tables 1, 2)[17]. The maximum tolerated dose (MTD) was determined to be 36 MBq/kg administered by intra-peritoneal injection twice weekly for a total of 4 dose fractions and this fractionated regimen was used in all studies (Supplementary Fig. 1)[18],[19]. […] Nine of 11 PDX models were MYCN amplified (Fig. 1b), which is a hallmark of high-risk neuroblastoma. Tumor response was measured as the maximum percent decrease in tumor volume after treatment and event-free survival (EFS) was measured by the area over the curve method with tumor events pre-defined by tumor growth exceeding 2 cm[3],[18].
as §1
(§3) Animal studies were performed in female mice due to the lack of sex-related differences for [^211At]PTT tolerability from initial dose response studies performed in female and male mice. Female mice were chosen due to their underlying behavior towards other study subjects that reduced nonstudy-related causes for decreased wellness. Pre-clinical efficacy studies were performed through “single mouse testing” to more closely recapitulate a clinical trial. […] Number size for treatment groups was determined by model tumor growth reproducibility, which was previously shown to have less than 5% normal variation with at least two animals. Statistical tests for tumor response and event-free survival (EFS) were performed as a grouped analysis that included all tumor models treated at each respective dose level (n = 2 per model per dose level). Statistical differences between treatment groups for tumor response was performed by paired-model T-test that compared reduction in tumor volume for the 36 MBq/kg dose level vs. 24 MBq/kg or 12 MBq/kg. Event free survival was measured by area over the curve method to quantify time to event, which was set as tumor growth exceeding 2 cm[3],[19]. Differences in EFS were tested across all treated models for each respective dose level, and against untreated controls, by paired-model ANOVA analysis. Associations of drug target expression and response were performed by linear regression analysis of EFS and PARP1 mRNA expression. Genetic signatures were visually presented as a function of EFS and no statistical tests were applied. Blood and marrow toxicity studies were performed with n = 5 sample sizes and powered to detect >20% differences between untreated controls and treated animals. Results were tested for significance by one-way ANOVA comparison from untreated controls. Marrow colony formation assays were performed in replicates of 2 for each mouse subject, dependent on marrow isolation, and all replicates are included in final analyses. […]

[3] = system: COG-N-453x; assay: Pre-clinical efficacy study, COG-N-453x PDX; settings: single mouse
Description: as §2, §1, §3

[4] = system: PARP1; assay: Clinical PET imaging / first-in-human dosimetry of [^18F]FTT and extrapolation to [^211At]PTT
[5] = 12 MBq/kg/fraction x 4 fractions
[6] = 24 MBq/kg/fraction x 4 fractions
[7] = 36 MBq/kg/fraction x 4 fractions

## O=C1NCCn2c(-c3ccc([211At])cc3)nc3cccc1c32 [[^211At]PTT, Astatine-211-parthanatine]
[1]; COG415-325, 12 MBq/kg/fraction x 4, 0.4 Weeks
  Percent Body Weight from study initiation: 100.48% and 95.77%
[1]; COG415-325, 12 MBq/kg/fraction x 4, 1 Weeks
  Percent Body Weight from study initiation: 100.97% and 94.84%
[1]; COG415-325, 12 MBq/kg/fraction x 4, 1.4 Weeks
  Percent Body Weight from study initiation: 100% and 92.96%
[1]; COG415-325, 12 MBq/kg/fraction x 4, 2 Weeks
  Percent Body Weight from study initiation: 97.58% and 92.96%
[1]; COG415-325, 12 MBq/kg/fraction x 4, 2.4 Weeks
  Percent Body Weight from study initiation: 103.86% and 98.12%
[1]; COG415-325, 12 MBq/kg/fraction x 4, 3 Weeks
  Percent Body Weight from study initiation: 102.42% and 99.53%
[1]; COG415-325, 12 MBq/kg/fraction x 4, 3.4 Weeks
  Percent Body Weight from study initiation: 108.7% and 102.35%
[1]; COG415-325, 12 MBq/kg/fraction x 4, 4 Weeks
  Percent Body Weight from study initiation: 111.11% and 110.33%
[1]; COG415-650, 24 MBq/kg/fraction x 4, 0.4 Weeks
  Percent Body Weight from study initiation: 102.79% and 99.52%
[1]; COG415-650, 24 MBq/kg/fraction x 4, 1 Weeks
  Percent Body Weight from study initiation: 96.74% and 92.82%
[1]; COG415-650, 24 MBq/kg/fraction x 4, 1.4 Weeks
  Percent Body Weight from study initiation: 92.56% and 90.43%
[1]; COG415-650, 24 MBq/kg/fraction x 4, 2 Weeks
  Percent Body Weight from study initiation: 90.23% and 87.56%
[1]; COG415-650, 24 MBq/kg/fraction x 4, 2.4 Weeks
  Percent Body Weight from study initiation: 93.49% and 92.34%
[1]; COG415-650, 24 MBq/kg/fraction x 4, 3 Weeks
  Percent Body Weight from study initiation: 100.93% and 99.04%
[1]; COG415-650, 24 MBq/kg/fraction x 4, 3.4 Weeks
  Percent Body Weight from study initiation: 100% and 96.65%
[1]; COG415-650, 24 MBq/kg/fraction x 4, 4 Weeks
  Percent Body Weight from study initiation: 102.33% and 99.04%
[1]; COG415-650, 24 MBq/kg/fraction x 4, 4.4 Weeks
  Percent Body Weight from study initiation: 106.05% and 102.39%
[1]; COG415-650, 24 MBq/kg/fraction x 4, 5 Weeks
  Percent Body Weight from study initiation: 107.44% and 96.65%
[1]; COG415-650, 24 MBq/kg/fraction x 4, 5.4 Weeks
  Percent Body Weight from study initiation: 111.63% and 101.91%
[1]; COG415-650, 24 MBq/kg/fraction x 4, 6 Weeks
  Percent Body Weight from study initiation: 104.31%
[1]; COG415-975, 36 MBq/kg/fraction x 4, 0 Weeks
  Percent Body Weight from study initiation: 100%
[1]; COG415-975, 36 MBq/kg/fraction x 4, 0.4 Weeks
  Percent Body Weight from study initiation: 94.07% and 98.23%
[1]; COG415-975, 36 MBq/kg/fraction x 4, 1 Weeks
  Percent Body Weight from study initiation: 84.75% and 90.71%
[1]; COG415-975, 36 MBq/kg/fraction x 4, 1.4 Weeks
  Percent Body Weight from study initiation: 80.51% and 90.27%
[1]; COG415-975, 36 MBq/kg/fraction x 4, 2 Weeks
  Percent Body Weight from study initiation: 72.88% and 79.65%
[1]; COG415-975, 36 MBq/kg/fraction x 4, 2.4 Weeks
  Percent Body Weight from study initiation: 77.97% and 83.63%
[1]; COG415-975, 36 MBq/kg/fraction x 4, 3 Weeks
  Percent Body Weight from study initiation: 80.08% and 81.86%
[1]; COG415-975, 36 MBq/kg/fraction x 4, 3.4 Weeks
  Percent Body Weight from study initiation: 75.42% and 81.42%
[1]; COG415-975, 36 MBq/kg/fraction x 4, 4 Weeks
  Percent Body Weight from study initiation: 80.93% and 80.09%
[1]; COG415-975, 36 MBq/kg/fraction x 4, 4.4 Weeks
  Percent Body Weight from study initiation: 82.2% and 82.3%
[1]; COG415-975, 36 MBq/kg/fraction x 4, 5 Weeks
  Percent Body Weight from study initiation: 88.56% and 88.05%
[1]; COG415-975, 36 MBq/kg/fraction x 4, 5.4 Weeks
  Percent Body Weight from study initiation: 88.98% and 91.59%
[1]; COG415-975, 36 MBq/kg/fraction x 4, 6.1 Weeks
  Percent Body Weight from study initiation: 96.19% and 92.48%
[1]; COG415-975, 36 MBq/kg/fraction x 4, 6.4 Weeks
  Percent Body Weight from study initiation: 94.07% and 90.71%
[1]; COG415-975, 36 MBq/kg/fraction x 4, 7 Weeks
  Percent Body Weight from study initiation: 99.58% and 93.36%
[1]; COG415-975, 36 MBq/kg/fraction x 4, 7.4 Weeks
  Percent Body Weight from study initiation: 101.27% and 93.36%
[1]; COG415-975, 36 MBq/kg/fraction x 4, 8 Weeks
  Percent Body Weight from study initiation: 95.48%
[1]; COG415-975, 36 MBq/kg/fraction x 4, 8.9 Weeks
  Percent Body Weight from study initiation: 100.44%
[1]; COG415-975, 36 MBq/kg/fraction x 4, 9.4 Weeks
  Percent Body Weight from study initiation: 100.88%
[1]; COG415-975, 36 MBq/kg/fraction x 4, 10 Weeks
  Percent Body Weight from study initiation: 101.77%
[1]; COG415-975, 36 MBq/kg/fraction x 4, 10.4 Weeks
  Percent Body Weight from study initiation: 103.98%
[1]; COG415-975, 36 MBq/kg/fraction x 4, 11 Weeks
  Percent Body Weight from study initiation: 107.08%
[1]; COG415-975, 36 MBq/kg/fraction x 4, 12 Weeks
  Percent Body Weight from study initiation: 105.31%
[1]; COG519-325, 12 MBq/kg/fraction x 4, 0 Weeks
  Percent Body Weight from study initiation: 100%
[1]; COG519-325, 12 MBq/kg/fraction x 4, 0.4 Weeks
  Percent Body Weight from study initiation: 100% and 97.98%
[1]; COG519-325, 12 MBq/kg/fraction x 4, 1 Weeks
  Percent Body Weight from study initiation: 93.83% and 96.97%
[1]; COG519-650, 24 MBq/kg/fraction x 4, 0 Weeks
  Percent Body Weight from study initiation: 100%
[1]; COG519-650, 24 MBq/kg/fraction x 4, 0.4 Weeks
  Percent Body Weight from study initiation: 97.69% and 96.86%
[1]; COG519-650, 24 MBq/kg/fraction x 4, 1 Weeks
  Percent Body Weight from study initiation: 95.37% and 97.38%
[1]; MTD, two out of 22 mice, >50 days from treatment
  mice censored from EFS analysis due to weight loss >20%: 9%
[1]; NBSD-650, 24 MBq/kg/fraction x 4, 2.6 Weeks
  Percent Body Weight from study initiation: 90.4306% and 91.4027%
[1]; NBSD-650, 24 MBq/kg/fraction x 4, 3 Weeks
  Percent Body Weight from study initiation: 94.7368% and 92.3077%
[1]; NBSD-650, 24 MBq/kg/fraction x 4, 3.6 Weeks
  Percent Body Weight from study initiation: 95.2153% and 92.7602%
[1]; NBSD-650, 24 MBq/kg/fraction x 4, 4 Weeks
  Percent Body Weight from study initiation: 98.0861%
[1]; NBSD-975, 36 MBq/kg/fraction x 4, 2.6 Weeks
  Percent Body Weight from study initiation: 84.141% and 86.3636%
[1]; NBSD-975, 36 MBq/kg/fraction x 4, 3 Weeks
  Percent Body Weight from study initiation: 81.9383% and 87.8788%
[1]; NBSD-975, 36 MBq/kg/fraction x 4, 3.6 Weeks
  Percent Body Weight from study initiation: 81.4978% and 88.3838%
[1]; NE-EBC1x tumor-bearing mouse re-challenged with 24 MBq/kg fractionated regimen
  dose-limiting toxicity observed (number): One
[1]; all dose levels
  treated mice that maintained a healthy weight throughout the study (≥100 ± 20% body weight): 43 of 46
[2]; 12 MBq/kg dose level
  median EFS: 23 days
[2]; 12 MBq/kg dose level (COG-N-415x n = 1, COG-N-453x n = 1)
  mouse tumors showing progressing disease after treatment: two
[2]; 12 MBq/kg, n = 8, 4 PDX models
  average decrease in tumor volume: 27.15 ± 42.2%
[2]; 24 MBq/kg dose level
  median EFS: 46 days
[2]; 24 MBq/kg re-challenge, COG-N-426x-Felix and NB-EBC1x, n = 2
  reduction in tumor volume after therapy re-challenge: 100%
[2]; 24 MBq/kg, n = 14, 7 PDX models
  average decrease in tumor volume: 92.6 ± 8.1%
[2]; 36 MBq/kg (MTD), n = 22, 11 PDX models
  average decrease in tumor volume: 98.4 ± 3.3%
[2]; 36 MBq/kg/fraction x4 (MTD)
  median event free survival (EFS): 74 days
[2]; MTD, 6/20 mice, >95 days (b1), >90 days
  mice with no measurable tumor/disease at end of study: 30%
[2]; MTD, 18 of 22 tumors
  complete tumor response, share of tumors: 81.8%
[3]; [5]
  EFS by AOC method: 19.5598 days and 22.4877 days
  Tumor response (% growth from study initiation at ~ 200 mm3): 25% and -63.158%
[3]; [6]
  EFS by AOC method: 43.7943 days and 33.4459 days
  Tumor response (% growth from study initiation at ~ 200 mm3): -100% and -90.323%
[3]; [7]
  EFS by AOC method: 48.6067 days and 52.9347 days
  Tumor response (% growth from study initiation at ~ 200 mm3): -100%
[4]; RBE of 5 for alpha radiation
  extrapolated equivalent dose to the kidneys: approximately 2 mSv/MBq
[4]; estimate from [^18F]FTT clinical data and pre-clinical uptake
  estimated SUVmax in neuroblastoma tumors: approximately 10
[4]; patient, biological half-life 5.1 hr and SUVmax of 10
  rough estimate of absorbed tumor dose: 0.17 Gy per MBq/kg
[4]; using human biodistribution results of [^18F]FTT in adults
  estimated renal absorbed dose: 0.25–0.41 mGy/MBq
